According to US12616698B2, “Methods for reducing liver fat and for treating fatty liver disorders” (Corcept Therapeutics Incorporated, priority 2021, dated 2026):
“Also recorded” adds a separate entry of the source.

Key:
[1] = tested on: patients with presumed NASH; assay: Example 6 study, dosing-regimen cohorts: liver fat content (MRI-PDFF) and markers; type: in vivo, human; details: for Mean reduction in LFC: Week 6 (FIG. 10)
Protocol: This study was a double-blind, multi-center, placebo-controlled, randomized 3-arm phase 2a study (NCT03823703) conducted to assess the safety and efficacy of miricorilant in reducing liver fat content (LFC) in patients with presumed NASH. Adult patients (18-75 years) with presumed NASH were randomized 1:1:1 to miricorilant 600 mg daily, miricorilant 900 mg daily, or placebo for 12 weeks. […] Abbreviations used in this Example and in the Figures include: ALP, alkaline phosphatase; ALT, alanine aminotransferase; AST, aspartate aminotransferase; ELF, enhanced liver fibrosis; LFC, liver fat content; NASH, non-alcoholic steatohepatitis; ULN, upper limit of normal; AUC, area under the concentration-time curve; Cmax, maximum concentration; EOT, end of treatment; GGT, gamma-glutamyltransferase; INR, international normalized ratio; MRI-PDFF, magnetic resonance imaging-proton density fat fraction; pt, patient; SD, standard deviation; ULN, upper limit of normal; Wk, week.
Key inclusion criteria included that the patients be adults between 18-75 years old; be presumed to suffer from NASH with fibrosis; have LFC as measured by MRI-PDFF≥8%; have levels of AST<5×ULN and ALT<5×ULN; and have eGFR>60 mL/min/1.73 m^2. Primary endpoints included relative change in LFC from baseline by MRI-PDFF. Secondary endpoints included change from baseline in AST, ALT, GGT, and change from baseline in ELF score.
Patients were divided into different cohorts and received different regimens of miricorilant. The cohorts included patients receiving 30 mg mircorilant once per day; patients receiving 50 mg mircorilant once per day; patients receiving 100 mg mircorilant once per day; patients receiving 150 mg mircorilant once per day; patients receiving 100 mg mircorilant on Mondays, Wednesdays, and Fridays; patients receiving 100 mg mircorilant on Mondays and Fridays; and patients receiving 200 mg mircorilant once per week. Patients receiving 100 mg mircorilant on Mondays and Fridays were termed “Cohort 6”.

C57BL/6J male mice = assay: AMLN diet NASH mouse model, drug provided in the AMLN diet; type: in vivo; details: 60 mg/kg miricorilant in AMLN diet, 8 weeks; for Liver weight at termination of the study: vs diet-alone control (FIG. 8A)
Protocol: Two studies were conducted in C57BL/6J male mice (n=12 per group) maintained on a diet high in fat (40%), cholesterol (2%) and fructose (20%; referred to as the AMLN diet: see, e.g., Tolbol et al., World Journal of Gastroenterology, 24(2):179-194 (2018)) for 42 weeks before dosing with miricorilant was initiated. In the first study, all animals ate the AMLN diet, and received either placebo, 30 mg/kg miricorilant, or 60 mg/kg mifepristone once per day orally. […] All animals received the AMLN diet for 42 weeks prior to receiving their first dose of study drug or placebo. 4 weeks prior to receiving that first dose, a liver biopsy and histological examination of biopsy tissue was performed for each animal; 3 weeks prior to receiving that first dose, animals were randomized into three groups: control, miricorilant, or mifepristone. Only mice with fibrosis stage >=1 and steatosis score >=2 were allowed in the study and the groups were stratified according to liver col1a1 so that each study group had similar overall distributions of liver col1a1 among the mice. All animals continued on the study diet for the 3 weeks following randomization, at which time study drug or placebo administration began. All animals received their assigned drugs for 8 weeks (the 8 week in vivo study period). At 56 days (week 8) after initiation of drug administration, plasma ALT, AST, triglycerides, total cholesterol, and miricorilant levels were measured, and animals were sacrificed, liver necropsies were performed, liver histological ((NAFLD Activity Score, Fibrosis Stage, steatosis (scored using hematoxylin and eosin staining (HE)), col1a (scored using immunohistochemistry (IHC)) and Galectin-3 (IHC)) and liver biochemical measurements (including liver triglycerides and total cholesterol) were made, and liver and plasma samples were obtained for genetic ((e.g., RNA sequencing) and other analyses.
Thus, in these studies, the mice were subjected to a liver biopsy approximately 4 weeks before initiation of dosing with miricorilant and only mice with confirmed fibrosis (fibrosis stage ≥1) and steatosis (score ≥2) were entered into the study. At the end of the dosing period, blood samples were collected for determination of plasma ALT, AST, triglycerides, total cholesterol, and miricorilant. Liver samples were collected for analysis of triglycerides, total cholesterol, hydroxyproline, and histopathology. Body weight and food consumption were monitored throughout the study.
Type I collagen IHC staining Type I collagen (Southern Biotech, Cat. 1310-01) IHC were performed using standard procedures. Briefly, after antigen retrieval and blocking of endogenous peroxidase activity, slides were incubated with primary antibody. The primary antibody was detected using a polymeric HRP-linker antibody conjugate. Next, the primary antibody was visualized with DAB as chromogen. Finally, sections were counterstained in hematoxylin and cover-slipped.
Liver Galectin-3 content Galectin-3 (Biolegend, Cat. #125402) IHC was performed using standard procedures. Briefly, after antigen retrieval and blocking of endogenous peroxidase activity, slides were incubated with primary antibody. The primary antibody was detected using a linker secondary antibody followed by amplification using a polymeric HRP-linker antibody conjugate. Next, the primary antibody was visualized with DAB as chromogen. Finally, sections were counterstained in hematoxylin and cover-slipped.
Total liver col1a1 was evaluated from liver samples stained with anti-type I collagen (col1a1) (Southern Biotech, cat. 1310-01) at the end of the treatment period (typically using low power (20×) magnification). Galectin-3 content was evaluated from images of liver samples stained with anti-Galectin-3 (BioLegend, Cat. 125402) at the end of the treatment period (typically using low power (20×) magnification). Terminal relative (left) and total (right) liver type I Collagen (Col1a1) quantification was determined by morphometry. […]

O=c1[nH]c(=O)c(Cc2cccc(C(F)(F)F)c2)c([C@H]2CC[C@H](c3ccccc3)CC2)[nH]1 [miricorilant, (E)-6-(4-Phenylcyclohexyl)-5-(3-trifluoromethylbenzyl)-1H-pyrimidine-2,4-dione]
Lipid levels (LDL and VLDL) ([1]; 100 mg twice per week, Mondays and Fridays (FIG. 16)): reductions | Glycemic markers ([1]; 100 mg twice per week, Mondays and Fridays (FIG. 17)): reductions | Fibrosis markers ([1]; 100 mg twice per week, Mondays and Fridays (FIG. 18)): reductions | LFC (MRI-PDFF) and liver enzyme levels (ALT and AST) ([1]; 100 mg twice per week, Mondays and Fridays, twelve weeks (FIG. 15)): reductions | Reduction in liver fat ([1]; 100 mg twice weekly, over 12 weeks): −30% | LFC mean % change from baseline ([1]; Cohort 6, miricorilant 100 mg twice weekly, week 12): −28.2% | LFC mean % change from baseline ([1]; daily doses of miricorilant 50-150 mg, week 6): −22.3% | Hepatic, lipid, and glycemic markers ([1]; miricorilant treatment, including 100 mg twice weekly): improvements; also recorded: improved | Weight loss ([1]; patients whose ALT and/or AST levels remain below 3 times normal): significant | Weight loss ([1]; patients whose ALT and/or AST levels rise above 3 times normal): even greater than for the other group | Slope of LFC decline ([1]; responders with ALT>3×ULN): −8.76 | Slope of LFC decline ([1]; responders without ALT>3×ULN): −4.24 | Mean reduction in LFC ([1]; treatment responders with ALT>3×ULN): −52.6% | Mean reduction in LFC ([1]; treatment responders without ALT>3×ULN): −25.5% | Relative and total liver Galectin-3 content (C57BL/6J male mice; IHC morphometry, vs vehicle (FIG. 8C)): reduced | Total liver type I collagen (col1a1) content (C57BL/6J male mice; IHC morphometry, vs vehicle, significant as total weight (FIG. 8B)): reduced | Body weight (C57BL/6J male mice; vs diet-alone control): significantly reduced | Liver weight at termination of the study (C57BL/6J male mice): reduced | Liver weight at termination of the study (C57BL/6J male mice; listed as Miricorilant): significantly reduced
